The subject of experiment [1] is phosphorylation of Akt in 4T1 cells. As to the kind of experiment: Western blot assay of phospho AKT in cells. It counts as cell-based, murine. The protocol: The protein was collected and protein lysates were electrophoresed. Then membranes were incubated with Phospho AKT, total AKT and actin antibodies overnight at 4° C. After appropriate amount of washing with TBST, membranes were incubated with horseradish peroxidase-conjugated secondary antibody for 1 hour. Detection was done using G-box (Syngene) and densitometric quantification was done by image J software. […] When cells were 70% confluent, they were incubated in serum free media for 6 hours. Then, free drug or equivalent amount of drug loaded nanoparticles were added in appropriate concentration in serum deprived media (1% FBS). […] Amount of protein was measured by […] and equal amount of protein lysates were electrophoresed on a 4-20% polyacrylamide gel, transferred to polyvinylidene difluoride membrane, and blocked in TBST-T with 5% dry milk. Then membranes were incubated in TBST with Phospho AKT (S473) (1:500 dilution), total AKT (1:1000 dilution), and actin (1:2000 dilution) antibodies (all antibodies from Cell Signalling Technology) overnight at 4° C. After appropriate amount of washing with TBST, membranes were incubated with horseradish peroxidase-conjugated secondary antibody for 1 hour. Detection was done using G-Box™ from Syngene and densitometric quantification was done by image J™ software.
In general terms: A western blot detects proteins with antibodies after separation by electrophoresis.

The next experiment concerns 4T1 breast cancer tumors. The experiment in a line: Efficacy study of SNPs in murine 4T1 breast cancer model. Format: in vivo, BALB/c mice. Particulars: 5 mg/kg PI103 equivalent, 3 injections every other day. The protocol:
4T1 breast cancer cells ([…]) were implanted subcutaneously in the flanks of 4-week-old BALB/c mice. The drug therapy was started on day 9. The drug therapy consisted of administration of PBS (for Control group), free drug (5 mg/kg) and SNPs (5 mg/kg). For PI103-SNPs, the drug therapy also consisted iRGD-PI103-SNPs group (5 mg/kg). The tumor volumes and body weights were monitored on every alternate day for 11 days.
The drug therapy was started on day 9. For PI828-SNPs, the drug therapy consisted of administration of PBS (for Control group), free PI-828 (5 mg/kg) and PI828-SNPs (5 mg/kg). For PI103-SNPs, the drug therapy consisted of administration of PBS (for control group), free PI-103 (5 mg/kg) and PI103-SNPs (5 mg/kg) and 1RGD-PI103-SNPs (5 mg/kg) (administered by tail-vain injection). The tumor volumes and body weights were monitored on every alternate day for 11 days. […] The animals were sacrificed when the average tumor volume of the control exceeded 2000 mm3 in the control group.

The subject of the next experiment is PI3K. Conditions: cited from earlier work.

“Also recorded” adds a separate entry of the source.

As to `Oc1cccc(-c2nc(N3CCOCC3)c3oc4ncccc4c3n2)c1` [PI103], in experiment [1] (4 hours exposure, wash, followed to 48 hours), the “phosphorylation of AKT after transient exposure” value is on record as “rebound increase in phosphorylation of AKT”. Further, the “basal phosphorylation of Akt” value in experiment [1] (equimolar PI103 (5 pM), continuous incubation, 48 hours) was “inhibited basal phosphorylation of Akt even at 48 hours of continuous incubation”. Also, the tumor growth result with 4T1 breast cancer tumors was “tumor growth inhibition relative to PBS-treated controls, but tumor rebound was observed after the treatment was stopped”. In addition, the PI3K inhibitory potency entry with PI3K is listed as “excellent potency in the low nanomolar range; also recorded: more potent”.

(Values after US10300143B2, “Compositions for treating cancer and methods for making the same” (THE BRIGHAM AND WOMEN'S HOSPITAL, INC., priority 2012, dated 2019).)
